Reference: ChEMBL document CHEMBL6127020, “Discovery of aminopiperidine based potent & novel topoisomerase inhibitor with broad spectrum anti-bacterial activity” (Bioorg Med Chem Lett, 2024)
Values after ≈ are worked out from the molar mass of the structure shown.

Legend:
[1] = test system: Escherichia coli; assay: Antibacterial activity against Escherichia coli ATCC 25922 assessed as inhibition of bacterial growth; assay type: functional
[2] = test system: Staphylococcus aureus; assay: Antibacterial activity against Staphylococcus aureus ATCC 29213 assessed as inhibition of bacterial growth; assay type: functional
[3] = Tmax in C57 mouse at 3 mg/kg,po administration; assay type: ADME, organism-based; conditions: in vivo
[4] = biological target: Cytochrome P450 2C19 (Homo sapiens, UniProt P33261); assay: Inhibition of CYP2C19 (unknown origin) at 10 uM; assay type: ADME
[5] = test system: Haemophilus influenzae; assay: Antibacterial activity against Haemophilus influenzae assessed as inhibition of bacterial growth; assay type: functional
[6] = test system: Acinetobacter baumannii; assay: Antibacterial activity against Acinetobacter baumannii assessed as inhibition of bacterial growth; assay type: functional
[7] = Clearance in C57 mouse at 1 mg/kg,iv administration; assay type: ADME, organism-based; conditions: in vivo
[8] = test system: Salmonella typhimurium; assay: Antibacterial activity against Salmonella typhimurium assessed as inhibition of bacterial growth; assay type: functional, Salmonella enterica subsp. enterica serovar Typhimurium
[9] = biological target: DNA gyrase (Staphylococcus aureus, UniProt P0A0K8+P20831); assay: Inhibition of Staphylococcus aureus DNA gyrase; assay type: protein-complex assay
[10] = test system: Klebsiella pneumoniae; assay: Antibacterial activity against Klebsiella pneumoniae assessed as inhibition of bacterial growth; assay type: functional
[11] = AUC (0 to t) in C57 mouse at 3 mg/kg,po administration; assay type: ADME, organism-based; conditions: in vivo
[12] = test system: Escherichia coli; assay: Antibacterial activity against Escherichia coli assessed as inhibition of bacterial growth; assay type: functional
[13] = C0 in C57 mouse at 1 mg/kg,iv administration; assay type: ADME, organism-based; conditions: in vivo
[14] = test system: Staphylococcus aureus; assay: Antibacterial activity against Staphylococcus aureus assessed as inhibition of bacterial growth; assay type: functional
[15] = biological target: T1, Cytochrome P450 1A2 (Homo sapiens, UniProt P05177); assay: Inhibition of CYP1A2 (unknown origin) at 10 uM; assay type: ADME
T1 sequence (P05177 whole entry): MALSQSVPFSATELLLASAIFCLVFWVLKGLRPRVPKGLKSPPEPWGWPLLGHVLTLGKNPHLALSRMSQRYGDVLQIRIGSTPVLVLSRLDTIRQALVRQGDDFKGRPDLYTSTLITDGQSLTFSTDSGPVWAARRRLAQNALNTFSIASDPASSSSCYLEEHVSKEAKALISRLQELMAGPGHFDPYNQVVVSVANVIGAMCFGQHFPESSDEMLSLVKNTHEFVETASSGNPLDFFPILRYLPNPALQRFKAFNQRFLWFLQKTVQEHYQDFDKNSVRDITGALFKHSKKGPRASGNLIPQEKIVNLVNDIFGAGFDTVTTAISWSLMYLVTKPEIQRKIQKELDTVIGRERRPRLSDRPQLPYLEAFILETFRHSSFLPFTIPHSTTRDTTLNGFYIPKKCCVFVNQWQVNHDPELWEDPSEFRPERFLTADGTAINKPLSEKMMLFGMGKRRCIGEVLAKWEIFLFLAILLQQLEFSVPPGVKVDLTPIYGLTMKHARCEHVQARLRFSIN

[16] = AUC (0 to t) in C57 mouse at 1 mg/kg,iv administration; assay type: ADME, organism-based; conditions: in vivo
[17] = test system: Enterococcus faecalis; assay: Antibacterial activity against Enterococcus faecalis assessed as inhibition of bacterial growth; assay type: functional
[18] = test system: Enterococcus faecalis; assay: Antibacterial activity against vancomycin-resistant Enterococcus faecalis assessed as inhibition of bacterial growth; assay type: functional
[19] = test system: Streptococcus pneumoniae; assay: Antibacterial activity against Streptococcus pneumoniae assessed as inhibition of bacterial growth; assay type: functional
[20] = biological target: Cytochrome P450 3A4 (Homo sapiens, UniProt P08684); assay: Inhibition of CYP3A4 (unknown origin) at 10 uM; assay type: ADME
[21] = Half life in C57 mouse at 1 mg/kg,iv administration; assay type: ADME, organism-based; conditions: in vivo
[22] = biological target: Cytochrome P450 2D6 (Homo sapiens, UniProt P10635); assay: Inhibition of CYP2D6 (unknown origin) at 10 uM; assay type: ADME
[23] = Volume of distribution at steady state in C57 mouse at 1 mg/kg,iv administration; assay type: ADME, organism-based; conditions: in vivo, read-out: Vdss
[24] = test system: Shigella flexneri; assay: Antibacterial activity against Shigella flexneri assessed as inhibition of bacterial growth; assay type: functional
[25] = biological target: T2, Cytochrome P450 2C8 (Homo sapiens, UniProt P10632); assay: Inhibition of CYP2C8 (unknown origin) at 10 uM; assay type: ADME
T2 sequence (P10632 whole entry): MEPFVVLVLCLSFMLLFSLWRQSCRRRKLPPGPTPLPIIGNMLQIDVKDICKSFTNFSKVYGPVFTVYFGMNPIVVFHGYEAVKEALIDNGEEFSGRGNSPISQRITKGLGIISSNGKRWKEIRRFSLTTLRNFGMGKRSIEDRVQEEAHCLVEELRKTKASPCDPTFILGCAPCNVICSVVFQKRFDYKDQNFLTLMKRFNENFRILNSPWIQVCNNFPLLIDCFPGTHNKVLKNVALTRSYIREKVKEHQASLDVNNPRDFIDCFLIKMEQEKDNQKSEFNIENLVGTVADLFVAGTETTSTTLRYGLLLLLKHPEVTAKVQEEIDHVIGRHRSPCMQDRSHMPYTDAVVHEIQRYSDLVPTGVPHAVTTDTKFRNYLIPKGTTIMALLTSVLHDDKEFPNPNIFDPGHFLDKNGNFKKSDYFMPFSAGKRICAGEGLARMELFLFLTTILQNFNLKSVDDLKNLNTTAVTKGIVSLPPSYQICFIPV

[26] = test system: Helicobacter pylori; assay: Antibacterial activity against Helicobacter pylori assessed as inhibition of bacterial growth; assay type: functional
[27] = Cmax in C57 mouse at 3 mg/kg,po administration; assay type: ADME, organism-based; conditions: in vivo
[28] = test system: Salmonella enterica; assay: Antibacterial activity against Salmonella enterica assessed as inhibition of bacterial growth; assay type: functional
[29] = test system: Enterococcus faecium; assay: Antibacterial activity against Enterococcus faecium assessed as inhibition of bacterial growth; assay type: functional
[30] = test system: Staphylococcus aureus; assay: Antibacterial activity against methicillin resistant Staphylococcus aureus assessed as inhibition of bacterial growth; assay type: functional
[31] = test system: Streptococcus pyogenes; assay: Antibacterial activity against Streptococcus pyogenes assessed as inhibition of bacterial growth; assay type: functional
[32] = Solubility of compound in PBS; assay type: physicochemical
[33] = MRT in C57 mouse at 1 mg/kg,iv administration; assay type: ADME, organism-based; conditions: in vivo
[34] = test system: Pseudomonas aeruginosa; assay: Antibacterial activity against Pseudomonas aeruginosa assessed as inhibition of bacterial growth; assay type: functional
[35] = Bioavailability in C57 mouse at 1 mg/kg,iv administration; assay type: ADME, organism-based; conditions: in vivo
[36] = Aqueous solubility of compound; assay type: physicochemical
[37] = Plasma protein binding in human; assay type: ADME, cell-free; conditions: read-out: PPB (converted)
[38] = biological target: Topoisomerase IV (Staphylococcus aureus, UniProt P0C1S7+P0C1U9); assay: Inhibition of Staphylococcus aureus DNA topoisomerase 4; assay type: protein-complex assay
Sequence of Topoisomerase IV (P0C1U9 whole entry): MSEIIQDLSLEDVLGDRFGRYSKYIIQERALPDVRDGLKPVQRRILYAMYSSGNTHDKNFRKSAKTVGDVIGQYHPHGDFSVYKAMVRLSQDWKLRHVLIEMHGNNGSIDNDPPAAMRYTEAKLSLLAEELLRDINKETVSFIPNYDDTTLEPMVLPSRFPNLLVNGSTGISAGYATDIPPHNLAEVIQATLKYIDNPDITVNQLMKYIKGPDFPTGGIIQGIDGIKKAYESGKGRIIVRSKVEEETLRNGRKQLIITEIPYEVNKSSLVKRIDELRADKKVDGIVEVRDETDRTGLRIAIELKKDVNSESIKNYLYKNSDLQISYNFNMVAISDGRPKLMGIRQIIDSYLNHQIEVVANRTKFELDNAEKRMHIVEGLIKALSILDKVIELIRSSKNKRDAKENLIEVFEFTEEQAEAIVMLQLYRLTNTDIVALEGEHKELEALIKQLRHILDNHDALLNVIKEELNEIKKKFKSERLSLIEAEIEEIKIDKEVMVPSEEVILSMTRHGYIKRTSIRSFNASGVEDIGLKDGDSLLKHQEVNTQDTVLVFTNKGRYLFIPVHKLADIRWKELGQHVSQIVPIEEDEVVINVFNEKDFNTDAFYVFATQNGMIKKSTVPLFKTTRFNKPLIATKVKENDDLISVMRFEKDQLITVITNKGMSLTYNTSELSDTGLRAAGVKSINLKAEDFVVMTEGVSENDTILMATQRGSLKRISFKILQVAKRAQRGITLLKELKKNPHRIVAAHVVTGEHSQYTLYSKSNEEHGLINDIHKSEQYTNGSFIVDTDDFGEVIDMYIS
Sequence of Topoisomerase IV (P0C1S7 whole entry): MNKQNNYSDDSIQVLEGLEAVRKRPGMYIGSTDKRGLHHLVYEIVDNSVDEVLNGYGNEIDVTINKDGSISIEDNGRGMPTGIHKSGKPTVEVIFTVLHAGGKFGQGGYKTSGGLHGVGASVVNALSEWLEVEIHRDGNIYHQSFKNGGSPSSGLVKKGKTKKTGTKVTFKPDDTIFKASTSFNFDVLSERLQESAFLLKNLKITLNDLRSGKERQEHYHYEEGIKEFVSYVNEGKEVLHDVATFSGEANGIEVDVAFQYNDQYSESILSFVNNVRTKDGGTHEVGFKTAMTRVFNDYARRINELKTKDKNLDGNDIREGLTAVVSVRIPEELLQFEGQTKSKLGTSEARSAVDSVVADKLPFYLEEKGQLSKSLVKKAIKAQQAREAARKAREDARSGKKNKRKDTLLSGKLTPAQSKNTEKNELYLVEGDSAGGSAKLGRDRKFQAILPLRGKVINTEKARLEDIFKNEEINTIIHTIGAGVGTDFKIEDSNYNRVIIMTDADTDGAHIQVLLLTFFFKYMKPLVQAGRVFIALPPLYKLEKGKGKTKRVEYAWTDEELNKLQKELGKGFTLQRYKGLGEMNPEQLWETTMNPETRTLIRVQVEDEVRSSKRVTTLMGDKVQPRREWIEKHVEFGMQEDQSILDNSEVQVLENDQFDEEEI

Sequence of DNA gyrase (P0A0K8 whole entry): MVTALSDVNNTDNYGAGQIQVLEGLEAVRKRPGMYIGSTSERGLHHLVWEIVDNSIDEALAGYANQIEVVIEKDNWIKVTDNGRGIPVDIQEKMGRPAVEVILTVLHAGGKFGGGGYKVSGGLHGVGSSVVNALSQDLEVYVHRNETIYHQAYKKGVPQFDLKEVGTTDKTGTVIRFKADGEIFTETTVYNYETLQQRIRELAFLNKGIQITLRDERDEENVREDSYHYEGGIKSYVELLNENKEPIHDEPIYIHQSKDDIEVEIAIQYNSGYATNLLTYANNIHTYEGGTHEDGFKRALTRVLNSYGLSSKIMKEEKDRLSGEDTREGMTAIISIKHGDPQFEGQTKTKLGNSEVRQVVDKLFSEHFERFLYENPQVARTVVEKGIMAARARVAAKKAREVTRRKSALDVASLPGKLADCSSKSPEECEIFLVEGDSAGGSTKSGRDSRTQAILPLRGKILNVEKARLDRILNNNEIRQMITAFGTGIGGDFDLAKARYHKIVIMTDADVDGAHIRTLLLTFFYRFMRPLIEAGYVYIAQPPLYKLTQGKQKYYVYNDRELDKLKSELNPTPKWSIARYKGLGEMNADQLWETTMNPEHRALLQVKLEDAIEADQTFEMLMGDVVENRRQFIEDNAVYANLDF
Sequence of DNA gyrase (P20831 whole entry): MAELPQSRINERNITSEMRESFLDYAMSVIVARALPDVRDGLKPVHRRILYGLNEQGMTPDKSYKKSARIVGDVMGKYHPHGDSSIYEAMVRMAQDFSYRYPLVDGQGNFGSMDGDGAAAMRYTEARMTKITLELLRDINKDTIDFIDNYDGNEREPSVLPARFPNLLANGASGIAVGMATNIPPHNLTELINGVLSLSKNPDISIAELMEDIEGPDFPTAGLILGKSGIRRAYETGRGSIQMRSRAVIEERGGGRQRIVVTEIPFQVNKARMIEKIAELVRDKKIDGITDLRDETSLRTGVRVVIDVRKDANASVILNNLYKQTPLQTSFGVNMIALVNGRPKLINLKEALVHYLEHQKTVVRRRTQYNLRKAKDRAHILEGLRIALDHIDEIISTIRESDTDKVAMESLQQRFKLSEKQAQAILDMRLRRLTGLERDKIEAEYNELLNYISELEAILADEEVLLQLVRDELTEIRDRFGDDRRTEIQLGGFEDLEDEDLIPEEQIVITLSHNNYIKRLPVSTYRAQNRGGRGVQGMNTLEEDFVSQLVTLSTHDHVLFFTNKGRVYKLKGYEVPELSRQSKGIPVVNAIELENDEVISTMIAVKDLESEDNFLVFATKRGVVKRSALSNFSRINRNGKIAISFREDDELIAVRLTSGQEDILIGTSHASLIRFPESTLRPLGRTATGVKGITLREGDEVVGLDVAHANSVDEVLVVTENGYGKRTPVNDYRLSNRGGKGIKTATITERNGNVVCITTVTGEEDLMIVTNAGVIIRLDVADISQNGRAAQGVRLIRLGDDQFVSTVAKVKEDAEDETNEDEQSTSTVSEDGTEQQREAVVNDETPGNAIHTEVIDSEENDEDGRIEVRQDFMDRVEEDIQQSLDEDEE
Sequence of Cytochrome P450 2C19 (P33261 whole entry): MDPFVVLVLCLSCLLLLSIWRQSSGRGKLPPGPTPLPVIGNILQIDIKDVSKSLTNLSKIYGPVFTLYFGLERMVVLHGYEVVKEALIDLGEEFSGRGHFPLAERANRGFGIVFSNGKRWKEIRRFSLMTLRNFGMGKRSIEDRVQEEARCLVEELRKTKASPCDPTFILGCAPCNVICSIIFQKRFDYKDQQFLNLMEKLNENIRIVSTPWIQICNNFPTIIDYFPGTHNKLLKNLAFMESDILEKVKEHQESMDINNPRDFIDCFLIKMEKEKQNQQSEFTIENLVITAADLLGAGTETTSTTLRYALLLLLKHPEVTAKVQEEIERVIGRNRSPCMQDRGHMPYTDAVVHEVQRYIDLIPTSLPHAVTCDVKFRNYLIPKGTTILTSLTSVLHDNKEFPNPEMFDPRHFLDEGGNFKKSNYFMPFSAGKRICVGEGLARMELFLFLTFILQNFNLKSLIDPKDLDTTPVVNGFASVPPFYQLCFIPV
Sequence of Cytochrome P450 3A4 (P08684 whole entry): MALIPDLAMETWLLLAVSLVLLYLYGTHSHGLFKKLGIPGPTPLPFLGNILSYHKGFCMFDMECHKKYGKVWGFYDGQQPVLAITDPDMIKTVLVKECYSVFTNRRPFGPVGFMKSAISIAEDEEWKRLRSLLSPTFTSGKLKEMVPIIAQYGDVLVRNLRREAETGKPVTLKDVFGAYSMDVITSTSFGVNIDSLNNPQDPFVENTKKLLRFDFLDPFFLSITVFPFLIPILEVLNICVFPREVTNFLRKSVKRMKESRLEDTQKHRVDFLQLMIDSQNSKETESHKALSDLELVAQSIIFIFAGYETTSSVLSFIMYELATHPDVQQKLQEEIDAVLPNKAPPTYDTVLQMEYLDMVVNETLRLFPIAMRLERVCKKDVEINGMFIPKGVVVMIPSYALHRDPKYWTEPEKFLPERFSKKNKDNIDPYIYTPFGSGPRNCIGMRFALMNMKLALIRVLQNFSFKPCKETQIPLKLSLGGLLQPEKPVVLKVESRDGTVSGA
Sequence of Cytochrome P450 2D6 (P10635 whole entry): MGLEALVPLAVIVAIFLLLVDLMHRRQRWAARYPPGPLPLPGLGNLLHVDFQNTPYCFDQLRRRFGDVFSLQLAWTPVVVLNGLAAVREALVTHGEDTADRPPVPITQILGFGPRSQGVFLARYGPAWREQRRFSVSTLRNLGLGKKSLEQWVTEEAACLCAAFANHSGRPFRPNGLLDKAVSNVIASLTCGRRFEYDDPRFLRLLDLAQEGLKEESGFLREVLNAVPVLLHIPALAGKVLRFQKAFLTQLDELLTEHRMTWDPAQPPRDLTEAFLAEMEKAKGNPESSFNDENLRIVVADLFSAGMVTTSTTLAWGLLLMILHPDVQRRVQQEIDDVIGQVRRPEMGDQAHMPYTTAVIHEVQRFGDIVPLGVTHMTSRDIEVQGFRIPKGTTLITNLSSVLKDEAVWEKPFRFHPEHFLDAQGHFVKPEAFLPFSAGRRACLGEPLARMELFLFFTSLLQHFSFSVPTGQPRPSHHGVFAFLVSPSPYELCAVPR

For `CN1C(=O)C(C)(C)Oc2ccc(CNC3CCN(CCn4c(=O)ccc5ccc(C#N)cc54)CC3)cc21`, the MIC [1] was over 16 µg/mL and the MIC [2] was over 16 µg/mL.

For `N#Cc1ccc2ccc(=O)n(CCN3CCC(NCc4ccc5c(c4)NC(=O)CS5)CC3)c2c1`, the Tmax [3] was 3 h, the “inhibition (INH)” value [4] was “Not Active” and the MIC [5] was 2 µg/mL (≈ 4.22 µM). It also gave an MIC [6] of 0.125 µg/mL (≈ 0.264 µM), an MIC90 [6] of 2 µg/mL (≈ 4.22 µM) and a clearance [7] of 80 mL/min/kg. The MIC [8] was 2 µg/mL (≈ 4.22 µM), the IC50 [9] was 3.2 nM and the MIC90 [10] was 16 µg/mL (≈ 33.8 µM). For the same molecule, the AUC(0-t) [11] was 110 ng·h/mL, the MIC [12] was 0.125 µg/mL (≈ 0.264 µM) and the MIC90 [12] was 2 µg/mL (≈ 4.22 µM). It also gave a C0 [13] of 1210 ng/mL, an MIC [14] of 0.016 µg/mL (≈ 0.0338 µM) and an MIC90 [14] of 0.125 µg/mL (≈ 0.264 µM). The “inhibition (INH)” value [15] was “Not Active”, the AUC(0-t) [16] was 206 ng·h/mL and the MIC [17] was 0.5 µg/mL (≈ 1.06 µM). It also gave an MIC90 [17] of 0.5 µg/mL (≈ 1.06 µM), an MIC [18] of 0.25 µg/mL (≈ 0.528 µM) and an MIC90 [18] of 4 µg/mL (≈ 8.45 µM). The MIC [19] was 0.125 µg/mL (≈ 0.264 µM), the MIC90 [19] was 1 µg/mL (≈ 2.11 µM) and the “inhibition (INH)” value [20] was “Not Active”. The half-life [21] was 2.5 h, the “inhibition (INH)” value [22] was “Not Active” and the Vd [23] was 14 L/kg. For the same molecule, the MIC [24] was 0.25 µg/mL (≈ 0.528 µM), the “inhibition (INH)” value [25] was “Not Active” and the MIC [26] was under 0.06 µg/mL. For the same molecule, the Cmax [27] was 22 ng/mL, the MIC [28] was 1 µg/mL (≈ 2.11 µM) and the MIC [29] was 1 µg/mL (≈ 2.11 µM). The MIC90 [29] was 1 µg/mL (≈ 2.11 µM), the MIC [30] was 0.03 µg/mL (≈ 0.0633 µM) and the MIC90 [30] was 0.125 µg/mL (≈ 0.264 µM). It also gave an MIC [1] of under 0.125 µg/mL, an MIC [2] of under 0.125 µg/mL and an MIC [31] of 0.15 µg/mL (≈ 0.317 µM). It also gave an MIC90 [31] of 0.25 µg/mL (≈ 0.528 µM), a solubility ([32]; PBS, read-out: solubility) of 611 µg/mL (≈ 1290 µM) and an MRT [33] of 3 h. The MIC [34] was 0.125 µg/mL (≈ 0.264 µM), the MIC90 [34] was 8 µg/mL (≈ 16.9 µM) and the bioavailability [35] was 18%. It also gave a solubility ([36]; aqueous medium, read-out: solubility) of 719 µg/mL (≈ 1520 µM), a fraction unbound [37] of 0.21 and an IC50 [38] of 300 nM.

`N#Cc1ccc2ccc(=O)n(CCN3CCC(NCc4ccc5c(c4)CCCC5)CC3)c2c1` gave an MIC [1] of 1 µg/mL (≈ 2.27 µM) and an MIC [2] of under 0.125 µg/mL.

`O=c1ccn2nccc2n1CCN1CCC(NCc2cc3c(cn2)OCCC3)CC1` showed an MIC [1] of 8 µg/mL (≈ 19.6 µM) and an MIC [2] of 2 µg/mL (≈ 4.9 µM).

In the case of `O=c1ccc2ccccc2n1CCN1CCC(NCc2cc3c(cn2)OCCC3)CC1`, the MIC [1] is reported as 16 µg/mL (≈ 38.2 µM) and the MIC [2] is reported as 1 µg/mL (≈ 2.39 µM).

With `O=c1c2ccccc2c2ccccc2n1CCN1CCC(NCc2cc3c(cn2)OCCC3)CC1` the MIC [1] was over 16 µg/mL and the MIC [2] was 1 µg/mL (≈ 2.13 µM).

For `O=c1ccc2ncc(=O)n3c2n1C[C@H]3CN1CCC(NCc2cc3c(cn2)OCCC3)CC1` [GEPOTIDACIN], the Tmax [3] was 2 h, the MIC90 [6] was 64 µg/mL (≈ 143 µM) and the clearance [7] was 60 mL/min/kg. For the same molecule, the AUC(0-t) [11] was 176 ng·h/mL, the C0 [13] was 724 ng/mL and the AUC(0-t) [16] was 244 ng·h/mL. The half-life [21] was 1.7 h, the Vd [23] was 5 L/kg and the Cmax [27] was 90 ng/mL. For the same molecule, the MIC [1] was 0.5 µg/mL (≈ 1.11 µM), the MIC [2] was 0.25 µg/mL (≈ 0.557 µM) and the solubility ([32]; buffer) was 663 µg/mL (≈ 1480 µM). For the same molecule, the MRT [33] was 1.4 h, the MIC90 [34] was 32 µg/mL (≈ 71.3 µM) and the bioavailability [35] was 24%. For the same molecule, the solubility ([36]; buffer) was 580 µg/mL (≈ 1290 µM) and the fraction unbound [37] was 0.67.
